Test [1] has as its target T1, ATM (Homo sapiens, UniProt Q13315).
T1 construct: detecting phosphorylation of Chk2 in a human non-small cell lung cancer cell line NCI-H460 (ATCC company); host or cells: NCI-H460 human non-small cell lung cancer cells
Kind of test: ATM inhibition test (phosphorylation of Chk2 generated by ionizing radiation, AlphaScreen SureFire). The format is cell-based. The note with it: phosphorylated Chk2 in NCI-H460 cells, ionizing radiation 8Gy, 1 hour after test compound treatment; read-out: ATM inhibitory activity. Put shortly:
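NCI-H460 cells treated with compound for 1 hour, then irradiated with 8Gy and incubated 1 hour at 37° C. Phospho-Chk2 measured by AlphaScreen SureFire. Inhibition ratio calculated relative to untreated irradiated and non-irradiated wells.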

The test system of test [2] is human non-small cell lung cancer cell line NCI-H460. The test can be described thus: Cell proliferation inhibition test by sensitivity-enhancing to ionizing radiation (Cell Titer Glo). The format is cell-based. The note with it: concentration in which SER became 2, NCI-H460 cells, ionizing radiation 2 Gy, cultured 120 hour. Put shortly: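 Cells seeded at 2×10^3 cells/mL in RPMI-1640 with 10% FBS; after 24 h, compound added (0.1% DMSO), and 30 min later half the plates irradiated at 2 Gy. After 120 hour at 37° C, viability by Cell Titer Glo luminescence; SER2 is the concentration giving SER of 2 by sigmoidal fit.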
On the technique in general: In ATP-based viability assays light output follows the ATP content of the culture.

Structures are written as SMILES.

T1 sequence (Q13315 whole entry): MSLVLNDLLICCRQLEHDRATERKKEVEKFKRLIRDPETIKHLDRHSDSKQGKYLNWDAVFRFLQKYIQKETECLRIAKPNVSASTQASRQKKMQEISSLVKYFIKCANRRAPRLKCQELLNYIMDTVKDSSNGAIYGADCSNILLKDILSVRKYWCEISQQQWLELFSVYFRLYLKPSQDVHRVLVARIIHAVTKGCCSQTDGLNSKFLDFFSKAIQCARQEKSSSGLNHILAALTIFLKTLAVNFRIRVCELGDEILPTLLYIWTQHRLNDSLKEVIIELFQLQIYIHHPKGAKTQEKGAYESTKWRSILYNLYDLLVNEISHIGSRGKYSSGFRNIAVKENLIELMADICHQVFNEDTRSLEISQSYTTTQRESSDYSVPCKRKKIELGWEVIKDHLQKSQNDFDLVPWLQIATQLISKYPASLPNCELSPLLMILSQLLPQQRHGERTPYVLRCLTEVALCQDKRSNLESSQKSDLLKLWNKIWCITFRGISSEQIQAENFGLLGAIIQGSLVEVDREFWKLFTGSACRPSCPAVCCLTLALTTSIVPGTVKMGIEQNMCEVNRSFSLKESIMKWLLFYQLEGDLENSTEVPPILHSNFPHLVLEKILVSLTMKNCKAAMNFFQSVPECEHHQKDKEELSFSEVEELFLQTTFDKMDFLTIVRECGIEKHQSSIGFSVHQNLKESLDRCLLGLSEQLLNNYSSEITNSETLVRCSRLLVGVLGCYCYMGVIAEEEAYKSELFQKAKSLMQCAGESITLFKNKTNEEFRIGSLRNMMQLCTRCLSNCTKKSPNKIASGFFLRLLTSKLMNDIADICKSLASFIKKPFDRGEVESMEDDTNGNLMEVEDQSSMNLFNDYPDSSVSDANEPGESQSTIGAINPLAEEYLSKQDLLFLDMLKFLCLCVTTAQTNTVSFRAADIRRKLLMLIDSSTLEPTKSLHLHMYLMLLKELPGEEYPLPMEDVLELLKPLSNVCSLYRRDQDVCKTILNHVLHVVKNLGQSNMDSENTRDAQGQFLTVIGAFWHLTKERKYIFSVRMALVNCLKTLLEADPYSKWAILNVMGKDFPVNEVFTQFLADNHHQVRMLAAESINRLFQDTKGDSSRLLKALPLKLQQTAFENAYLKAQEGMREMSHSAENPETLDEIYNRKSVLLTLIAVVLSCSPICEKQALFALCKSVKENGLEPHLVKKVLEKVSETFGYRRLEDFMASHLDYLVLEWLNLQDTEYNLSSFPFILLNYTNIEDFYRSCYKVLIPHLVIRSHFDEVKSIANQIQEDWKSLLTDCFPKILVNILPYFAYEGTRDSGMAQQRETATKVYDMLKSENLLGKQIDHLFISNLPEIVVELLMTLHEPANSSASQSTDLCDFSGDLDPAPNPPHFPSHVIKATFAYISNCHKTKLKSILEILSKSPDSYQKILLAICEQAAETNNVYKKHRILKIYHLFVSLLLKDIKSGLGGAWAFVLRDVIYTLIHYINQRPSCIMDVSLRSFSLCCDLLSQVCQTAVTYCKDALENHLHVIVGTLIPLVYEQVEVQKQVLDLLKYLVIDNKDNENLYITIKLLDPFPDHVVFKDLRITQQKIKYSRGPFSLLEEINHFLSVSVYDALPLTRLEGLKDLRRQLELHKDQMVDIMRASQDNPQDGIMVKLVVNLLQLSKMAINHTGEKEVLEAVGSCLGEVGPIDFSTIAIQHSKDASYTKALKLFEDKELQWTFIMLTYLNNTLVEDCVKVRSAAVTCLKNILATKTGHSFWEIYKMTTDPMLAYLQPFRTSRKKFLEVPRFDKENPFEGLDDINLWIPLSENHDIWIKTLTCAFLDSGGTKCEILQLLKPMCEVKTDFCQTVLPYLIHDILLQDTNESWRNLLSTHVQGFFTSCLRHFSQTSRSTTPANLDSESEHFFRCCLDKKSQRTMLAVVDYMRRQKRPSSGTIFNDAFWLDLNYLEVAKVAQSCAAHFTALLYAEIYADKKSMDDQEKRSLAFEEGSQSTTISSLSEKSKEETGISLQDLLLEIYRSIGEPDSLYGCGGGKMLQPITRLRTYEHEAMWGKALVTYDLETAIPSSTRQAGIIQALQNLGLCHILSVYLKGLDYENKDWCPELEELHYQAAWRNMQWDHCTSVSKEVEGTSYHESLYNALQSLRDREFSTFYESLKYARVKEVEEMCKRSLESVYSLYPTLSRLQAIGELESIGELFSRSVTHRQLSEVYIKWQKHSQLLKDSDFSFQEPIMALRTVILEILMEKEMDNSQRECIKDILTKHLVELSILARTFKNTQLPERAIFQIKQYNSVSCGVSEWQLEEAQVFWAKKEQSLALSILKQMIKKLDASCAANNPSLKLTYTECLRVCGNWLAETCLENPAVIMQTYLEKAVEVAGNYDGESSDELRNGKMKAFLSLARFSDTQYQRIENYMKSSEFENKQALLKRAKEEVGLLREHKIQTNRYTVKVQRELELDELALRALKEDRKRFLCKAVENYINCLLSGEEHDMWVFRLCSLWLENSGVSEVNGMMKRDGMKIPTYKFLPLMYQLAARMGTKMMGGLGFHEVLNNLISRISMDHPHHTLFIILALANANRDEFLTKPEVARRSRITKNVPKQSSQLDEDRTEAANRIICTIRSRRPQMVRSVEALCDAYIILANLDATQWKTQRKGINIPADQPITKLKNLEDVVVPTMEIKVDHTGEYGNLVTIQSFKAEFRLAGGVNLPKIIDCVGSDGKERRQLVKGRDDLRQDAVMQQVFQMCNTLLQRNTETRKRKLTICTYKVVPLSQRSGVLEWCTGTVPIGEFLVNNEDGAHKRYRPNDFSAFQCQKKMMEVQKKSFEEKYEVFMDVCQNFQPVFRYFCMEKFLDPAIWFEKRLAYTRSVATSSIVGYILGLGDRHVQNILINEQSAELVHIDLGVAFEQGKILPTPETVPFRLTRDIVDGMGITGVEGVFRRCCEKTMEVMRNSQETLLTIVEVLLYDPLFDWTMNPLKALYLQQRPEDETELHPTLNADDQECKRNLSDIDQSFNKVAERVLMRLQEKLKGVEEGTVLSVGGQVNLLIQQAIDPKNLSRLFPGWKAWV

For `O=c1cc(N2CCOCC2)cc(-c2cccc3c2Oc2ccc(NCc4cncc(-n5cccc5)c4)cc2S3)[nH]1` [Example 4-4-8, 6-(8-(((5-(1H-Pyrrol-1-yl)pyridin-3-yl)methyl)amino)phenoxathiin-4-yl)-4-morpholino pyridin-2(1H)-one], the IC50 in test [1] was under 100 nM. The SER2 (concentration at which the radiation sensitivity-enhancement ratio reaches 2) in test [2] (Homo sapiens, NCI-H460, 120 h) lay within 100 to 500 nM.
As to `O=c1cc(N2CCOCC2)cc(-c2cccc3c2Oc2ccc(NCc4cncc(C5CCCC5)c4)cc2S3)[nH]1` [Example 4-8-15, 6-(8-(((5-Cyclopentylpyridin-3-yl)methyl)amino)phenoxathiin-4-yl)-4-morpholino pyridin-2(1H)-one], the IC50 in test [1] was under 100 nM. Also, the SER2 (concentration at which the radiation sensitivity-enhancement ratio reaches 2) in test [2] (Homo sapiens, NCI-H460, 120 h) fell in the range of 500 to 2000 nM.
In the case of `CN(C)c1cncc(CNc2ccc3c(c2)Cc2cccc(-c4cc(N5CCOCC5)cc(=O)[nH]4)c2O3)c1` [Example 2-21-7, 6-(7-(((5-(Dimethylamino)pyridin-3-yl)methyl)amino)-9H-xanthen-4-yl)-4-morpholino pyridin-2(1H)-one], the IC50 in test [1] was under 100 nM. In addition, in test [2] (Homo sapiens, NCI-H460, 120 h), the SER2 (concentration at which the radiation sensitivity-enhancement ratio reaches 2) was in the range of 500 to 2000 nM.
For `CNc1ccc(CNc2ccc3c(c2)Cc2cccc(-c4cc(N5CCOCC5)cc(=O)[nH]4)c2O3)cn1` [Example 2-2-7, 6-(7-(((6-(Methylamino)pyridin-3-yl)methyl)amino)-9H-xanthen-4-yl)-4-morpholino pyridin-2 (1H)-one] the same measures were 100 to 500 nM and 100 to 500 nM.
Taken in the same sequence, the figures for `COc1cccc(C(CO)Nc2ccc3c(c2)Sc2cccc(-c4cc(N5CCOCC5)cc(=O)[nH]4)c2S3)n1` (stereo not shown) [Example 1-12-132, 6-(7-((2-Hydroxy-1-(6-methoxypyridin-2-yl)ethyl)amino)thianthren-1-yl)-4-morpholino pyridin-2(1H)-one] were under 100 nM and 100 to 500 nM.
As to `CNCC(Nc1ccc2c(c1)Sc1cccc(-c3cc(N4CCOCC4)cc(=O)[nH]3)c1S2)c1cccc(C)n1` (stereo not shown) [Example 1-19-1, 6-(7-((2-(Methylamino)-1-(6-methylpyridin-2-yl)ethyl)amino)thianthren-1-yl)-4-morpholinopyridin-2(1H)-one], the IC50 in test [1] was under 100 nM. In test [2] (Homo sapiens, NCI-H460, 120 h), the SER2 (concentration at which the radiation sensitivity-enhancement ratio reaches 2) fell in the range of 100 to 500 nM.
Taken in the same sequence, the figures for `O=c1cc(N2CCOCC2)cc(-c2cccc3c2Oc2ccc(NCc4cncc(C5CC5)c4)cc2C3)[nH]1` [Example 2-2-50, 6-(7-(((5-Cyclopropylpyridin-3-yl)methyl)amino)-9H-xanthen-4-yl)-4-morpholino pyridin-2 (1H)-one] were under 100 nM and 100 to 500 nM.
Turning to `COCCOCC(Nc1ccc2c(c1)Sc1cccc(-c3cc(N4CCOCC4)cc(=O)[nH]3)c1S2)c1nccc(C)n1` (stereo not shown) [Example 1-12-97, 6-(7-((2-(2-Methoxyethoxy)-1-(4-methylpyrimidin-2-yl)ethyl)amino)thianthren-1-yl)-4-morpholino pyridin-2(1H)-one], the IC50 in test [1] is under 100 nM. The SER2 (concentration at which the radiation sensitivity-enhancement ratio reaches 2) in test [2] (Homo sapiens, NCI-H460, 120 h) lay in the range of 100 to 500 nM.
`COc1ccnc(CNc2ccc3c(c2)Cc2cccc(-c4cc(N5CCOCC5)cc(=O)[nH]4)c2O3)n1` [Example 2-13-8, 6-(7-(((4-Methoxypyrimidin-2-yl)methyl)amino)-9H-xanthen-4-yl)-4-morpholino pyridin-2(1H)-one]: the IC50 in test [1] is under 100 nM. Besides, the SER2 (concentration at which the radiation sensitivity-enhancement ratio reaches 2) in test [2] (Homo sapiens, NCI-H460, 120 h) was 500 to 2000 nM.
Taken in the same sequence, the figures for `Cc1ccc(C(C)Nc2ccc3c(c2)Sc2cccc(-c4cc(N5CCOCC5)cc(=O)[nH]4)c2S3)nc1` (single isomer, unassigned) [Example 1-12-143-1, 6-(7-((1-(5-methylpyridin-2-yl)ethyl)amino)thianthren-1-yl)-4-morpholinopyridin-2(1H)-one] were under 100 nM and under 100 nM.
For `Cc1ccc(C(CCC2OCCCO2)Nc2ccc3c(c2)Sc2cccc(-c4cc(N5CCOCC5)cc(=O)[nH]4)c2S3)nc1` (stereo not shown) [Example 1-12-131, 6-(7-((3-(1,3-Dioxan-2-yl)-1-(5-methylpyridin-2-yl)propyl)amino)thianthren-1-yl)-4-morpholino pyridin-2 (1H)-one] the same measures were under 100 nM and 100 to 500 nM.
Taken in the same sequence, the figures for `Cc1cnc(C(CF)Nc2ccc3c(c2)Sc2cccc(-c4cc(N5CCOCC5)cc(=O)[nH]4)c2S3)nc1` (stereo not shown) [Example 1-12-93, 6-(7-((2-Fluoro-1-(5-methylpyrimidin-2-yl)ethyl)amino)thianthren-1-yl)-4-morpholino pyridin-2(1H)-one] were under 100 nM and 100 to 500 nM.
For the compound `Cc1ccc(C(Nc2ccc3c(c2)Sc2cccc(-c4cc(N5CCOCC5)cc(=O)[nH]4)c2S3)C2CCN(C)CC2)nc1` (single isomer, unassigned) [Example 1-51-1, 6-(7-(((1-methylpiperidin-4-yl)(5-methylpyridin-2-yl)methyl)amino)thianthren-1-yl)-4-morpholinopyridin-2(1H)-one], the IC50 in test [1] is under 100 nM. Moreover, the SER2 (concentration at which the radiation sensitivity-enhancement ratio reaches 2) in test [2] is under 100 nM.
On to `CCOc1cncc(CNc2ccc3c(c2)Cc2cccc(-c4cc(N5CCOCC5)cc(=O)[nH]4)c2O3)c1` [Example 2-2-48, 6-(7-(((5-Ethoxypyridin-3-yl)methyl)amino)-9H-xanthen-4-yl)-4-morpholino pyridin-2(1H)-one], for which, in test [1], the IC50 was under 100 nM. For the same compound, in test [2] (Homo sapiens, NCI-H460, 120 h), the SER2 (concentration at which the radiation sensitivity-enhancement ratio reaches 2) is 500 to 2000 nM.
Taken in the same sequence, the figures for `COc1ccnc(C(C)Nc2ccc3c(c2)Cc2cccc(-c4cc(N5CCOCC5)cc(=O)[nH]4)c2O3)c1` (single isomer, unassigned) [Example 2-14-86-2, 6-(7-((1-(4-methoxypyridin-2-yl)ethyl)amino)-9H-xanthen-4-yl)-4-morpholinopyridin-2(1H)-one] were under 100 nM and 100 to 500 nM.
For `O=c1cc(N2CCOCC2)cc(-c2nccc3c2Oc2ccc(NCc4cc(Cl)ccn4)cc2C3)[nH]1` [Example 2-41-3, 6-(7-(((4-Chloropyridin-2-yl)methyl)amino)-5H-chromeno [2,3-c]pyridin-1-yl)-4-morpholino pyridin-2(1H)-one] the same measures were under 100 nM and 100 to 500 nM.
Taken in the same sequence, the figures for `COC[C@H](CN1C[C@@H](C)O[C@@H](C)C1)Nc1ccc2c(c1)Sc1cccc(-c3cc(N4CCOCC4)cc(=O)[nH]3)c1S2` [Example 1-46-11, 6-(7-(((S)-1-((2S,6R)-2,6- Dimethylmorpholino)-3-methoxypropan-2-yl)amino)thianthren-1-yl)-4-morpholino pyridin-2(1H)-one] were under 100 nM and under 100 nM.
Turning to `O=c1cc(N2CCOCC2)cc(-c2c(F)ccc3c2Oc2ccc(NCc4cc(C5CC5)ccn4)cc2C3)[nH]1` [Example 2-46-3, 6-(7-(((4-Cyclopropylpyridin-2-yl)methyl)amino)-3-fluoro-9H-xanthen-4-yl)-4-morpholinopyridin-2(1H)-one], the IC50 in test [1] was under 100 nM. For the same compound, the SER2 (concentration at which the radiation sensitivity-enhancement ratio reaches 2) in test [2] (Homo sapiens, NCI-H460, 120 h) is under 100 nM.
Regarding `Cc1ccc(CNc2ccc3c(c2)Sc2cccc(-c4cc(N5CCOCC5)cc(=O)[nH]4)c2S3)nc1` [Example 1-12-13, 6-(7-(((5-Methylpyridin-2-yl)methyl)amino)thianthren-1-yl)-4-morpholino pyridin-2 (1H)-one], the IC50 in test [1] was under 100 nM. For the same compound, the SER2 (concentration at which the radiation sensitivity-enhancement ratio reaches 2) in test [2] (Homo sapiens, NCI-H460, 120 h) was in the range of 100 to 500 nM.
For `COC[C@H](CN1CCO[C@H](C)C1)Nc1ccc2c(c1)Sc1cccc(-c3cc(N4CCOCC4)cc(=O)[nH]3)c1S2` [Example 1-46-7, 6-(7-(((S)-1-Methoxy-3-((R)-2-methylmorpholino)propan-2-yl)amino)thianthren-1-yl)-4-morpholino pyridin-2(1H)-one] the same measures were under 100 nM and 100 to 500 nM.
Taken in the same sequence, the figures for `O=c1cc(N2CCOCC2)cc(-c2cccc3c2Oc2ccc(NCc4cncc(Cl)c4)cc2C3)[nH]1` [Example 2-2-12, 6-(7-(((5-Chloropyridin-3-yl)methyl)amino)-9H-xanthen-4-yl)-4-morpholino pyridin-2 (1H)-one] were under 100 nM and 100 to 500 nM.
For the compound `Cc1cccc(C(Nc2ccc3c(c2)Sc2cccc(-c4cc(N5CCOCC5)cc(=O)[nH]4)c2S3)C2CCCN(C)C2)n1` (single isomer, unassigned) [Example 1-22-4, 6-(7-(((1-Methylpiperidin-3-yl)(6-methylpyridin-2-yl)methyl)amino)thianthren-1-yl)-4-morpholino pyridin-2 (1H)-one], in test [1], the IC50 was under 100 nM. The SER2 (concentration at which the radiation sensitivity-enhancement ratio reaches 2) in test [2] (Homo sapiens, NCI-H460, 120 h) is under 100 nM.
Consider `COc1ccc(CNc2ccc3c(c2)Cc2cccc(-c4cc(N5CCOCC5)cc(=O)[nH]4)c2S3)cn1` [Example 3-8-10, 6-(7-(((6-Methoxypyridin-3-yl)methyl)amino)-9H-thioxanthen-4-yl)-4-morpholino pyridin-2(1H)-one], for which the IC50 in test [1] is under 100 nM. Besides, in test [2] (Homo sapiens, NCI-H460, 120 h), the SER2 (concentration at which the radiation sensitivity-enhancement ratio reaches 2) fell in the range of 100 to 500 nM.

These data come from patent US9586951B2 (FUJIFILM Corporation, priority 2013, dated 2017).
